Patent US7935823B2 (priority 2007, dated 2011)

Assays:
C57BL/6 mice = experiment: Object recognition test, recognition of a new localization of an object; format: in vivo; settings: for object exploration / discrimination ratio compared with control: 0.02 mg/kg; for time exploring the object in a familiar localization / time exploring the object in a new localization: 0.1 mg/kg, tested 48 hours after training
From the text: Object recognition test as a method for research on the effects of some exemplary compounds on memory in mice.
The object recognition test is based on a spontaneous behavior of rats and mice to explore a novel object or a new localization of an object more often than a familiar one. This test was first developed for rats [Ennaceur A., Delacour J. A new one-trial test for neurobiological studies of memory in rats. 1: behavioral data. Behav. Brain Res. 1988; 31:47-59]. Thereafter, various researchers have shown that the test is also suitable for assessing memory performance in mice [e.g., Dodart J. C., Mathis C., Ungerer A. Scopolamine-induced deficits in a two-trial object recognition task in mice. NeuroReport 8 (1997), pp. 1173-1178]. The object recognition test is divided into two tests: a test of recognition of a new localization of an object that is used for research on spatial memory, and a test of recognition of a new object that is used for research on non-spatial memory.
Twenty (20) to twenty-two (22) month-old female mice (old mice) and four (4) to six (6) month-old male mice (young mice) of C57BL/6 strain were used. The animals were housed five per cage under a normal light cycle (12×12, light on at 8:00 AM) and with free access to water and food. The training box was made of white, opaque organic glass with dimensions of 48×38×30 cm. Two kinds of plastic items were used as objects for recognition: a white cylinder (d=4 cm, h=2.8 cm), and a black, three-edged prism (2.5×2.5×3.5 cm and h=3.4 cm). Care was taken to avoid olfactory stimuli by cleaning the objects and box carefully. Two (2) to three (3) min before the mice were placed into the box, the objects and the box were wiped with 85% ethanol. Animals were always placed in the middle of the training box.
Referring again to FIGS. 1A-1B and FIGS. 2A-2C, the mice were injected intraperitoneally with some of the various exemplary compounds shown in the figures, or with the vehicle (solvent) alone in the same volume, one hour before the recall trial.
On the first day of the experiment, the mice were handled in the research room for 20 to 30 min for acclimatization. Then, one by one, the mice were habituated to the training box by being placed into the box without any object for 20 min to explore the box, and were returned to their cages.
On the next day, the same mice were brought into a research room. After 20-30 min of acclimatization, each mouse was placed into an empty box for one minute. Then, the mouse was removed from the training box. Two identical objects (white cylinders) were placed approximately 5 inches distant from two adjacent corners of the box and immediately an animal was returned to the box. The time of exploring of each individual object was registered separately with the help of two electronic stop-watches (to within 0.1 sec). The behavior of each animal was observed through a mirror. Exploration was operationally defined as directing the nose to the object from a distance less than 2 cm, or touching the object with the nose. The duration of the training trial was 5, 10, 15 and 20 minutes.
[…] Testing was performed the same way as training, but one of the two familiar objects was changed to the new object (black prism).
When the recognition of a new localization of an object improved, the same experimental sequence was performed, except that only the localization of one of the familiar objects was changed in the testing session.
A significant variability of object exploration times between animals was measured. The ratio of object-exploration times was calculated as follows: each object-exploration time was divided by the sum of both of the object-exploration times during the same testing session, and expressed in percent: (tnew×100%)/(tfamiliar+tnew)
The data were analyzed using a one-way analysis of variance followed by a Student's t-test.

[1] = molecular target: butyrylcholine esterase (BuChE) (Homo sapiens, UniProt P06276); experiment: Butyrylcholine esterase assay; format: biochemical; settings: compound concentration 10 uM; human serum enzyme; 560 uM S-butyrylthiocholine
Sequence of butyrylcholine esterase (BuChE) (P06276 29-602): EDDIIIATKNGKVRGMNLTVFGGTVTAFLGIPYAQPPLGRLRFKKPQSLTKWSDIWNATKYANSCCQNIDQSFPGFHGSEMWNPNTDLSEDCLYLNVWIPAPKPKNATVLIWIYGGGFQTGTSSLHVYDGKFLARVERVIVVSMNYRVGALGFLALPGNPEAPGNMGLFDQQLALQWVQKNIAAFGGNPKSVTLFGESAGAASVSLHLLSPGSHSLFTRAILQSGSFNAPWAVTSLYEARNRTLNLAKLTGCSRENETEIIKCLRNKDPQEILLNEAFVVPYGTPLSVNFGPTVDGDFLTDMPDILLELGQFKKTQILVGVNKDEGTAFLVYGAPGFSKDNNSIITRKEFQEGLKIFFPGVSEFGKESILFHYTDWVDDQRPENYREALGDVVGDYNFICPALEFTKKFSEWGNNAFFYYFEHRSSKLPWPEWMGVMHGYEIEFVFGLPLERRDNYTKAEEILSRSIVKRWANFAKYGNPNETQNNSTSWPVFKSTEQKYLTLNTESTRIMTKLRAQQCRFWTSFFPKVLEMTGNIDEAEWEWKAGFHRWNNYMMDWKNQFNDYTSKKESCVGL
Experimental: Butyrylcholine Esterase Assay.
The assay was conducted as follows [Ellman G. L., Courtney K. D., Andres Jr. V., and Featherstone R. N. A new and rapid colorimetric determination of acetylcholinesterase activity.

5-HT6 Receptor = molecular target: T1, 5-HT6 Receptor (Homo sapiens, UniProt P50406); experiment: Binding with 5-HT6 receptor (radioligand binding); settings: compound concentration 10 uM; ligand 1.5 nM [3H]-LSD
T1 construct: expressed in transfected cells; host or cells: HeLa cells
T1 sequence (P50406 whole entry): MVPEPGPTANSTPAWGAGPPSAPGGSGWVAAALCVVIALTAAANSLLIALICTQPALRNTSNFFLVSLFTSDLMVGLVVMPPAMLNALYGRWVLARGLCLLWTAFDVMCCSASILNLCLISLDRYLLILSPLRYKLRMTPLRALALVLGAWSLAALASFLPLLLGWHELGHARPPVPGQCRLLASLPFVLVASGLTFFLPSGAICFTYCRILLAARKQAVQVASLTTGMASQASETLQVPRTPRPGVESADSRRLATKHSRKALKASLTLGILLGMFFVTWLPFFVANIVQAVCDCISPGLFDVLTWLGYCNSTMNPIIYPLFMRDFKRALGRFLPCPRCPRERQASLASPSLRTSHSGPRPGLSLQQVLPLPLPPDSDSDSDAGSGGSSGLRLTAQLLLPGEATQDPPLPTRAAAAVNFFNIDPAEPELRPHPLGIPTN
Experimental: Binding with 5-HT6 Receptor.
The assay was conducted as follows [Monsma F. J., Jr, Shen Y., Ward R. P., Hamblin M. W., and Sibley D. R. Cloning and Expression of a novel serotonin receptor with high affinity for tricyclic psychotropic drugs. Mol. Pharmacol. 1993, 43: 320-327]: • Receptor source: human recombinant HeLa cells; • Ligand: 1.5 nM [3H]-lysergic acid diethylamide (LSD); • Vehicle: 1% DMSO; • Incubation time: 2 hours at 37 C; • Incubation buffer: 50 mM Tris-HCl, pH 7.4, 150 mM NaCl, 2 mM ascorbic acid, 0.001% BSA; • Compound concentration: 10 uM; • Non-specific ligand: 5 uM serotonin (5-HT); • Quantitation method: radioligand binding

[2] = system: mitochondrial permeability transition pores; settings: MPP(+) and beta-amyloid fragment 25-35; cited from earlier work
NMDA receptor = settings: read-out: NMDA receptor inhibition constant (Ki); cited from earlier work

SMILES	effectiveness as memory stimulating agents relative to memantine (C57BL/6 mice)	object exploration / discrimination ratio compared with control (C57BL/6 mice)	time exploring the object in a familiar localization (C57BL/6 mice)	time exploring the object in a new localization (C57BL/6 mice)	inhibition at 10 µM [1] [%]	inhibition at 10 µM (5-HT6 Receptor) [%]	prevention of neurotoxin-induced opening of mitochondrial pores [2]	Ki (NMDA receptor) [nM]
CN1CCc2c(c3cc(F)cc(F)c3n2CCc2cncc(F)c2)C1 [compound 8]	approximately 25 times	not different from that of the control mice	39.2+/−6.9%	60.8+/−6.9%	31	91	–	–
Nc1c2c(nc3ccccc13)CCCC2 [tacrine]	–	–	–	–	–	–	prevented	–
CC(=O)NCCc1c[nH]c2ccc(O)cc12 [N-acetylserotonin]	–	–	–	–	–	–	prevented	–
CC12CC3CC(C)(C1)CC(N)(C3)C2 [memantine]	–	–	–	–	–	–	–	500
CN1CCc2c(c3cc(Br)ccc3n2CCc2cncc(F)c2)C1 [compound 5]	approximately 25 times	did not differ significantly from the control	approximately 43.0%	57+/−4.6%	96	103	–	–
